Reference: ChEMBL document CHEMBL5346904 (Eur J Med Chem, 2023)
≈ marks a conversion by molar mass, not a printed value. Calls of active or inactive are those of the source. The calls are words filed in the database; no cut-off is given here.

Assays:
[1] = test system: Staphylococcus aureus; test: Antimicrobial activity against Staphylococcus aureus ATCC 9144 assessed as inhibition of bacterial growth incubated for 48 hrs by CLSI based broth microdilution method; assay type: functional
[2] = test system: Bacillus subtilis; test: Antimicrobial activity against Bacillus subtilis 168 assessed as inhibition of bacterial growth incubated for 48 hrs by CLSI based broth microdilution method; assay type: functional
[3] = test system: Escherichia coli; test: Antimicrobial activity against Escherichia coli ATCC 25922 assessed as inhibition of bacterial growth incubated for 48 hrs by CLSI based broth microdilution method; assay type: functional
[4] = test system: Pseudomonas aeruginosa; test: Antimicrobial activity against Pseudomonas aeruginosa ATCC 27853 assessed as inhibition of bacterial growth incubated for 48 hrs by CLSI based broth microdilution method; assay type: functional
[5] = Hemolytic activity in human RBC assessed as hemolysis incubated for 1 hr by absorbance based microplate reader analysis; assay type: toxicity, cell-based, Erythrocyte; conditions: human red blood cells (erythrocytes)
[6] = Selectivity index, ratio of EC50 for hemolytic activity in human RBC assessed as hemolysis to MIC for antimicrobial activity against Staphylococcus aureus ATCC 9144 assessed as inhibition of bacterial growth; assay type: toxicity; conditions: human red blood cells (erythrocytes), read-out: Selectivity Index
[7] = Selectivity index, ratio of EC50 for hemolytic activity in human RBC assessed as hemolysis to MIC for antimicrobial activity against Bacillus subtilis 168 assessed as inhibition of bacterial growth; assay type: toxicity; conditions: human red blood cells (erythrocytes), read-out: Selectivity Index
[8] = test system: Escherichia coli; test: Antimicrobial activity against Escherichia coli K12 assessed as inhibition of bacterial growth incubated for 48 hrs by CLSI based broth microdilution method; assay type: functional
[9] = Selectivity index, ratio of EC50 for hemolytic activity in human RBC assessed as hemolysis to MIC for antimicrobial activity against Escherichia coli ATCC 25922 assessed as inhibition of bacterial growth; assay type: toxicity; conditions: human red blood cells (erythrocytes), read-out: Selectivity Index
[10] = Selectivity index, ratio of EC50 for hemolytic activity in human RBC assessed as hemolysis to MIC for antimicrobial activity against Pseudomonas aeruginosa ATCC 27853 assessed as inhibition of bacterial growth; assay type: toxicity; conditions: human red blood cells (erythrocytes), read-out: Selectivity Index
[11] = test system: Bacillus subtilis; test: Antibacterial activity against Bacillus subtilis 168 assessed as reduction in bacterial viability at 1.6 to 51.2 microg/ml measured after 3 min; assay type: functional, organism-based; conditions: dose 1.6-51.2 µg/ml
[12] = test system: Cell membrane; test: Disruption of membrane integrity in Bacillus subtilis 168 measured for 180 sec by luciferase based bioluminescence assay; assay type: subcellular; conditions: dose 1.6-51.2 µg/ml
[13] = test system: Cell membrane; test: Disruption of membrane integrity in Bacillus subtilis 168 at 25.6 to 51.2 microg/ml measured for 180 sec by luciferase based bioluminescence assay; conditions: dose 25.6-51.2 µg/ml
[14] = test system: Cell membrane; test: Disruption of membrane integrity in Bacillus subtilis 168 at 25.6 microg/ml measured for 180 sec by luciferase based bioluminescence assay; assay type: subcellular; conditions: dose 25.6 µg/ml
[15] = test system: Escherichia coli; test: Antibacterial activity against Escherichia coli K12 assessed as reduction in bacterial viability at 1.6 to 51.2 microg/ml measured for 3 min; assay type: functional, organism-based; conditions: dose 1.6-51.2 µg/ml
[16] = test system: Escherichia coli; test: Antibacterial activity against Escherichia coli K12 assessed as reduction in bacterial viability measured for 3 min; assay type: functional, organism-based; conditions: dose 1.6-51.2 µg/ml
[17] = test system: Cell membrane; test: Disruption of inner membrane integrity in Escherichia coli K12 at 51.2 microg/ml measured for 180 sec by luciferase based bioluminescence assay; assay type: subcellular; conditions: dose 51.2 µg/ml
[18] = test system: Cell membrane; test: Induction of outer membrane permeabilization in Escherichia coli K12 assessed as increase in fluorescence intensity at 1.6 to 51.2 microg/ml measured for […] by NPN uptake assay; assay type: subcellular; conditions: dose 1.6-51.2 µg/ml
[19] = test system: Cell membrane; test: Disruption of inner membrane integrity in Escherichia coli K12 at 1.6 to 25.6 microg/ml measured for 3 mins by luciferase based bioluminescence assay; assay type: subcellular; conditions: dose 1.6-25.6 µg/ml
[20] = test system: Cell membrane; test: Disruption of inner membrane integrity in Escherichia coli K12 at 51.2 microg/ml measured for 3 mins by luciferase based bioluminescence assay; assay type: subcellular; conditions: dose 51.2 µg/ml
[21] = test system: Escherichia coli; test: Antibacterial activity against Escherichia coli K12 assessed as reduction in bacterial viability at 51.2 microg/ml measured for 3 min; assay type: functional, organism-based; conditions: dose 51.2 µg/ml
[22] = test system: Cell membrane; test: Disruption of outer membrane integrity in Escherichia coli K12 assessed as increase in fluorescence intensity at 51.2 microg/ml measured for 3 mins by NPN uptake assay; assay type: subcellular; conditions: dose 51.2 µg/ml

| Structure (SMILES) | MIC [1] | MIC [2] | MIC [3] | MIC [4] | EC50 at 1 h [5] | selectivity ratio [6] | selectivity ratio [7] | further results |
| --- | --- | --- | --- | --- | --- | --- | --- | --- |
| NCCCCN1C(=O)N(CCCCN)C(Cc2ccc(Br)c(Cl)c2)(Cc2ccc(Br)c(Cl)c2)C1=O.O=C(O)C(F)(F)F.O=C(O)C(F)(F)F | 8 µg/mL | 4 µg/mL | 64 µg/mL | 64 µg/mL | > 439 µg/mL | > 55 | > 110 |  |
| N=C(N)NCCCCN1C(=O)N(CCCCNC(=N)N)C(Cc2ccc(C(F)(F)F)cc2)(Cc2ccc(C(F)(F)F)cc2)C1=O.O=C(O)C(F)(F)F.O=C(O)C(F)(F)F | 4 µg/mL | 4 µg/mL | 64 µg/mL | > 128 µg/mL | > 503 µg/mL |  |  |  |
| NCCCCN1C(=O)N(CCCCN)C(Cc2cc(C(F)(F)F)cc(C(F)(F)F)c2)(Cc2cc(C(F)(F)F)cc(C(F)(F)F)c2)C1=O.O=C(O)C(F)(F)F.O=C(O)C(F)(F)F | 16 µg/mL | 4 µg/mL | 64 µg/mL | 64 µg/mL | > 461 µg/mL |  |  |  |
| NCCCN1C(=O)N(CCCN)C(=O)C(Cc2cc(Br)cc(Br)c2)(Cc2cc(Br)cc(Br)c2)C1=O.O=C(O)C(F)(F)F.O=C(O)C(F)(F)F | 4 µg/mL | 4 µg/mL | 8 µg/mL | 8 µg/mL |  |  |  |  |
| NCCCN1C(=O)N(CCCN)C(Cc2ccc(Br)c(Cl)c2)(Cc2ccc(Br)c(Cl)c2)C1=O.O=C(O)C(F)(F)F.O=C(O)C(F)(F)F | 8 µg/mL | 4 µg/mL | 32 µg/mL | 32 µg/mL | 368 µg/mL |  |  |  |
| NCCCCN1C(=O)N(CCCCN)C(Cc2ccc(C(F)(F)F)cc2)(Cc2ccc(C(F)(F)F)cc2)C1=O.O=C(O)C(F)(F)F.O=C(O)C(F)(F)F | 64 µg/mL | 16 µg/mL | > 128 µg/mL | > 128 µg/mL | > 393 µg/mL |  |  |  |
| NCCCOc1nc(Cc2cc(Br)cc(Br)c2)c(Cc2cc(Br)cc(Br)c2)n1CCCN.O=C(O)C(F)(F)F.O=C(O)C(F)(F)F | 2 µg/mL | 2 µg/mL | 4 µg/mL | 4 µg/mL | 44 µg/mL |  |  |  |
| N=C(NCCCCCCNC(=N)NC(=N)Nc1ccc(Cl)cc1)NC(=N)Nc1ccc(Cl)cc1 [CHLORHEXIDINE] |  | 1.5 µg/mL (≈ 2.97 µM) |  |  |  |  |  | MIC [8]: 1.5 µg/mL (≈ 2.97 µM) |
| N=C(N)NCCCN1C(=O)N(CCCNC(=N)N)C(Cc2cc(C(F)(F)F)cc(C(F)(F)F)c2)(Cc2cc(C(F)(F)F)cc(C(F)(F)F)c2)C1=O | 4 µg/mL (≈ 5.33 µM) | 2 µg/mL (≈ 2.66 µM) | 32 µg/mL (≈ 42.6 µM) | 32 µg/mL (≈ 42.6 µM) | > 489 µg/mL | > 122 | > 245 |  |
| NCCCN1C(=O)N(CCCN)C(Cc2ccc(Br)c3ccccc23)(Cc2ccc(Br)c3ccccc23)C1=O.O=C(O)C(F)(F)F.O=C(O)C(F)(F)F | 4 µg/mL | 4 µg/mL | 8 µg/mL | 8 µg/mL | 69 µg/mL |  |  |  |
| N=C(N)NCCCN1C(=O)N(CCCNC(=N)N)C(Cc2ccccc2)(Cc2ccccc2)C1=O.O=C(O)C(F)(F)F.O=C(O)C(F)(F)F | 64 µg/mL | 128 µg/mL | > 256 µg/mL | > 256 µg/mL | > 353 µg/mL |  |  |  |
| NCCCN1C(=O)N(CCCN)C(Cc2cc(C(F)(F)F)cc(C(F)(F)F)c2)(Cc2cc(C(F)(F)F)cc(C(F)(F)F)c2)C1=O.O=C(O)C(F)(F)F.O=C(O)C(F)(F)F | 16 µg/mL | 8 µg/mL | 16 µg/mL | 16 µg/mL | 399 µg/mL | 25 | 50 | selectivity ratio [9]: 25; selectivity ratio [10]: 25 |
| NCCCN1C(=O)N(CCCN)C(Cc2ccccc2)(Cc2ccccc2)C1=O.O=C(O)C(F)(F)F.O=C(O)C(F)(F)F | > 256 µg/mL | 256 µg/mL | > 256 µg/mL | > 256 µg/mL | > 311 µg/mL |  |  |  |
| NCCCCN1C(=O)N(CCCCN)C(Cc2cc(Br)cc(Br)c2)(Cc2cc(Br)cc(Br)c2)C1=O.O=C(O)C(F)(F)F.O=C(O)C(F)(F)F | 8 µg/mL | 2 µg/mL | 32 µg/mL | 32 µg/mL | 364 µg/mL |  |  |  |
| NCCCn1c(Cc2cc(Br)cc(Br)c2)c(Cc2cc(Br)cc(Br)c2)n(CCCN)c1=O.O=C(O)C(F)(F)F.O=C(O)C(F)(F)F | 2 µg/mL | 1 µg/mL | 4 µg/mL | 8 µg/mL | 52 µg/mL |  |  |  |
| N=C(N)NCCCN1C(=O)N(CCCNC(=N)N)C(Cc2ccc(Br)c3ccccc23)(Cc2ccc(Br)c3ccccc23)C1=O.O=C(O)C(F)(F)F.O=C(O)C(F)(F)F | 2 µg/mL | 2 µg/mL | 8 µg/mL | 32 µg/mL | 206 µg/mL | 103 | 103 | selectivity ratio [9]: 26 |
| NCCCN1C(=S)N(CCCN)C(Cc2cc(Br)cc(Br)c2)(Cc2cc(Br)cc(Br)c2)C1=S.O=C(O)C(F)(F)F.O=C(O)C(F)(F)F | 8 µg/mL | 8 µg/mL | 16 µg/mL | 32 µg/mL | 385 µg/mL |  |  |  |
| NCCCN1C(=O)N(CCCN)C(Cc2cc(Br)cc(Br)c2)(Cc2cc(Br)cc(Br)c2)C1=O.O=C(O)C(F)(F)F.O=C(O)C(F)(F)F | 8 µg/mL | 4 µg/mL | 16 µg/mL | 8 µg/mL | 344 µg/mL | 43 | 86 | selectivity ratio [9]: 22; selectivity ratio [10]: 43 |
| N=C(N)NCCCCN1C(=O)N(CCCCNC(=N)N)C(Cc2cc(Br)cc(Br)c2)(Cc2cc(Br)cc(Br)c2)C1=O.O=C(O)C(F)(F)F.O=C(O)C(F)(F)F | 1 µg/mL | 1 µg/mL | 4 µg/mL | 16 µg/mL | 206 µg/mL | 206 | 206 | selectivity ratio [9]: 52; selectivity ratio [10]: 13 |
| N=C(N)NCCCN1C(=O)N(CCCNC(=N)N)C(Cc2cc(Br)cc(Br)c2)(Cc2cc(Br)cc(Br)c2)C1=O.O=C(O)C(F)(F)F.O=C(O)C(F)(F)F | 2 µg/mL | 4 µg/mL | 16 µg/mL | 32 µg/mL | 486 µg/mL | 243 | 122 | selectivity ratio [9]: 30 |
| N=C(N)NCCCN1C(=O)N(CCCNC(=N)N)C(Cc2ccc(Br)c(Cl)c2)(Cc2ccc(Br)c(Cl)c2)C1=O | 2 µg/mL (≈ 2.84 µM) | 2 µg/mL (≈ 2.84 µM) | 32 µg/mL (≈ 45.4 µM) | 64 µg/mL (≈ 90.7 µM) | > 467 µg/mL | > 234 | > 234 |  |
| NCCCN1C(=O)N(CCCN)C(Cc2ccc(C(F)(F)F)cc2)(Cc2ccc(C(F)(F)F)cc2)C1=O.O=C(O)C(F)(F)F.O=C(O)C(F)(F)F | 64 µg/mL | 16 µg/mL | 256 µg/mL | > 256 µg/mL | > 379 µg/mL |  |  |  |
| N=C(N)NCCCCN1C(=O)N(CCCCNC(=N)N)C(Cc2ccc(Br)c(Cl)c2)(Cc2ccc(Br)c(Cl)c2)C1=O.O=C(O)C(F)(F)F.O=C(O)C(F)(F)F | 1 µg/mL | 1 µg/mL | 8 µg/mL | 32 µg/mL | 347 µg/mL | 347 | 347 | selectivity ratio [9]: 43; Activity [11]: Active; Activity [12]: Dose-Dependent Effect; Activity [13]: Active; Activity [14]: Active; Activity [15]: inactive; Activity [16]: Dose-Dependent Effect; Activity [17]: inactive; Activity [18]: Active; Activity [19]: inactive; Activity [20]: Active; Activity [21]: Active; Activity [22]: Active |
| N=C(N)NCCCCN1C(=O)N(CCCCNC(=N)N)C(Cc2cc(C(F)(F)F)cc(C(F)(F)F)c2)(Cc2cc(C(F)(F)F)cc(C(F)(F)F)c2)C1=O.O=C(O)C(F)(F)F.O=C(O)C(F)(F)F | 2 µg/mL | 2 µg/mL | 8 µg/mL | 32 µg/mL | 384 µg/mL | 192 | 192 | selectivity ratio [9]: 48 |
| N=C(N)NCCCN1C(=O)N(CCCNC(=N)N)C(Cc2ccc(C(F)(F)F)cc2)(Cc2ccc(C(F)(F)F)cc2)C1=O.O=C(O)C(F)(F)F.O=C(O)C(F)(F)F | 16 µg/mL | 8 µg/mL | 128 µg/mL | > 256 µg/mL | > 421 µg/mL |  |  |  |
